Test results from patent US6689777B2 (Kenneth S. Warren Institute, priority 2001, dated 2004).
Where a name gives a salt, the structure may show the parent alone. Read-outs that look alike come from different tables or passages of the source.

Legend:
synthetic hemozoin = assay: Depolymerization of synthetic hemozoin in vitro; format: biochemical; conditions: 50 mM test compound, acetate buffer pH 5.0, 37° C., 16 hours
Method: This activity is evaluated by incubating a suspension of monomer-free hemozoin at 37° C. with compounds of the present invention for 16 hours. After incubation, hemozoin is separated from any solubilized heme and soluble heme oligomers, the oligomers depolymerized, and the heme present in the supernatants determined.
The synthesis of synthetic hemozoin is carried out as previously described (26). In brief, 60 μmoles of hematin was dissolved in 8 ml of 0.1N NaOH. Following dissolution 49 mmoles of glacial acetic acid was added and the suspension heated at 70° C. overnight. The precipitate was then washed extensively with LPS-free water. In order to remove unreacted heme the precipitate was extracted with 0.1M sodium bicarbonate (pH 9.1) for three hours. The remaining insoluble material was recovered by centrifugation, resuspended in EtOH and transferred to sterile Eppendorf tubes. The material was washed several times in EtOH and finally resuspended in LPS-free double-distilled H2O. The hemozoin preparation was then tested for endotoxin by using the Limulus Amebocyte Lysate test following manufacturer's instructions. Although the preparation of LPS-free hemozoin from native or synthetic sources is not critical for in vitro depolymerization studies, it is critical for studies involving monocytes and animals (see Examples below). Small amounts of LPS can evoke a considerable cytokine response and interfere with interpretation of results. The amount of heme in the final product was determined from a small aliquot using the pyridine-hemochrome method as previously described (26). The preparations are stored at 4° C. until used.
A suspension of monomer-free hemozoin (equivalent to 2 mM free heme) as prepared above was incubated at 37° C. with […] test compound in total volume of 500 μl in acetate buffer (pH: 5.0) in siliconized Eppendorf tubes (Brinkmann Instruments, Westbury, N.Y.) for 16 hours. A control sample containing distilled H2O instead of hemozoin was included. The samples were centrifuged at 14,000 rpm (Eppendorf centrifuge model 5415C, Brinkmann Instruments, Westbury, N.Y.) for 20 min; then 225 μl supernatant was diluted in 175 μl acetate buffer (pH 5.0). Another 225 μl was added to 175 μl 0.5 M NaOH to dissolve possible oligomeric depolymerization products to monomers. Half of the pellet was washed twice for 2.5 hr in 200 μl 2.5% SDS (v/v) in dH2O, the other half was washed twice in 200 μl HCO3^− buffer (pH: 9.1). Both sample supernatants and SDS and HCO3^− buffer supernatants were centrifuged 14,000 rpm for 20 min. and supernatants were added to 10 μl sodium dithionite (200 mg/ml dH2O) to reduce the heme monomers in solution to Fe^2+. All samples were measured in triplicate at 540 nm (Model UV1601 spectrophotometer, Shimradzu Corp, Columbia, Md.). The OD obtained from the blind sample was subtracted from the OD of the hemozoin containing sample.

P. falciparum = P. falciparum growth in culture ([3H]-hypoxanthine incorporation); format: cell-based; conditions: read-out: IC50 vs. P. falc.
Method: To determine the effectiveness of the compounds of the present invention against the erythrocytic stage of the malarial parasite, P. falciparum was grown in human erythrocyte suspensions and maintained at 37° C. in candle jars according to the method of Trager and Jensen (15,16). Parasites were stage-synchronized by incubating mainly ring-stage infected erythrocytes in 5% sorbitol for 10 minutes at room temperature (17). Cultures undergo one growth cycle (2 days) before use. Strains used include the chloroquine sensitive strains D10 and HB3, and the chloroquine resistant isolates Dd2 and FCR.
Parasite growth was determined by measuring incorporation of [^3H]-hypoxanthine into the nucleic acids of the parasite (18). Effects of the compounds of the present invention on parasite growth was determined by measuring the reduction in incorporation of radiolabel as compared to controls. Briefly, assays are performed in 96-well microtiter plates. After 24 h of candle jar incubation at 37° C., [^3H]-hypoxanthine is added to each well. After 18 h the plates are harvested onto glass fiber filter 96 well plates using a cell harvester, dried, and the amount of radioactivity is determined. Drug IC50 values (molar concentration which decreases [^3H]-hypoxanthine incorporation by 50% as compared to drug-free controls) are calculated by extrapolation of the log dose-response curves using curve fitting software (Origin, Microcal Software, Northampton, Mass.).
Parasites were grown in A^+ human erythrocyte suspensions using RPMI-1640 (GIBCO, Gaithersburg, Md.) medium supplemented by 25 mM HEPES (pH 7.35), 0.2% NaHCO3 (23 mM), 0.2% (D)-Glucose and 10% human A^+ plasma and maintained at 37° C. in candle jars according to the method of Trager and Jensen (20,21) Parasites are stage synchronized by incubating mainly ring-stage infected erythrocytes in 5% sorbitol for 10 minutes at room temperature (22). Cultures undergo one growth cycle (2 days) before use. Strains used include the chloroquine sensitive strains D10 and HB3, and the chloroquine resistant isolates Dd2 and FCR.
Parasite growth was determined by measuring incorporation of [^3H]-hypoxanthine into the nucleic acids of the parasite as previously described (23). Effects of the compounds of the present invention on parasite growth was determined by measuring the reduction in incorporation of radiolabel as compared to controls. Briefly, assays were performed in 96-well microtiter plates, each well containing 200 μl of synchronized ring-stage infected erythrocytes in complete media and 50 μl of drug dilution or solvent. The final hematocrit was 1.5% and percent parasitemias range from 2-8%. After 24 h of candle jar incubation at 37° C., 2.5 μCi of [^3H]-hypoxanthine (17 Ci/mmol, Amersham, Arlington Heights, Ill.) in RPMI-1640 media supplemented with 25 mM HEPES (pH 7.35), 0.2% NaHCO3 (23 mM), 0.2% (D)-Glucose is added to each well. After 18 h the plates were harvested onto glass fiber filter 96 well plates using a cell harvester, dried, and 25 μl scintillation acid added per well. The, amount of radioactivity was determined. Drug IC50 values (molar concentration which decreases [^3H]-hypoxanthine incorporation by 50% as compared to drug-free controls) are calculated by extrapolation of the log dose-response curves using curve fitting software (Origin, Microcal Software, Northampton, Mass.). The effects on parasite grown by aromatic guanyllhydrazones, bisguanylhydrazones, naphthothiazolium salts, and other compounds of the instant invention, together with data on hemozoin depolymerization from Example 5, are shown in tables 1 through 4, respectively.

[1] = system: hemozoin ingested by human monocytes; assay: Breakdown of macrophage-ingested hemozoin; format: cell-based; conditions: 25 μM compound, FIG. 1
Method: A further evaluation of compounds was performed for activity against pathophysiological effects of hemozoin on the host, using hemozoin-laden macrophages in culture. Freshly-isolated human monocytes were suspended in medium and hemozoin at a concentration reflective of the amount of hemozoin released into circulation during schizogony. In order to maximize contact between hemozoin and monocytes, the cell preparations were centrifuged for 5 sec at 150×g. Ingestion of hemozoin is essentially complete by two hours. Cells were then washed, plated and kept in a humidified incubator. The test compounds of the present invention were added to the wells at concentrations ranging from 0 to 20 mM. Macrophage viability was determined by direct microscopic examination (gross morphology and detachment from the well), trypan blue exclusion method, and LDH release. […] At various times post-treatment (1 hour; 3 hours), cells were lysed, extensively washed and spun down (2500×g) to pellet any cellular components including hemozoin. The lysates were then treated with alkali to dissolve hemozoin to give monomeric heme (35). Monomeric heme was quantified as described above.
Human monocytes were freshly isolated from a buffy coat from a normal donor using Percoll gradients. […] Cells were solubilized at various time points and hemozoin content determined by luminol-elicited chemiluminescence.

[2] = Table 2, aromatic bisguanylhydrazones, growth in culture, [3H]-hypoxanthine incorporation

Row | Structure (SMILES) | % depol. hemoz. (synthetic hemozoin; Table 2) [%] | IC50 (P. falciparum; [2]) [nM] | further results
1 | CC(=NNC(=N)N)c1cccc(C(C)=NNC(=N)N)c1.Cl.Cl [2,2′-(1,3-phenylenediethylidyne)bis(hydrazinecarboximidamide) dihydrochloride] | 0.4 | 830 | 
2 | Cl.Cl.N=C(N)NN=Cc1cccc(C=NNC(=N)N)c1 [2,2′-(1,3-phenylenedimethylidyne)bis(hydrazinecarboximidamide) dihydrochloride] | 0.1 | 1000 | 
3 | CC(=NNC(=N)N)c1cccc(C(C)=NNC(=N)N)n1.Cl.Cl [2,2′-(2,6-pyridinediyldiethylidyne)bis(hydrazinecarboximidamide) dihydrochloride] | 0.0 | 2000 | 
4 | CC(=NNC(=N)N)c1cncc(C(C)=NNC(=N)N)c1.Cl.Cl [2,2′-(3,5-pyridinediyldiethylidyne)bis(hydrazinecarboximidamide) dihydrochloride] | 0.3 | 400 | 
5 | CC(CCC1=C(CCC(C)=NNC(=N)N)C(=O)c2ccccc2C1=O)=NNC(=N)N.Cl.Cl [2,2′-[(1,4-dihydro-1,4-dioxo-2,3-naphthalenediyl)bis(1-methyl-3-propanyl-1-ylidene)]bis(hydrazinecarboximidamide)dihydrochloride] |  |  | % depol. hemoz. (synthetic hemozoin; Table 4): 0.3%; IC50 (P. falciparum; Table 4, in culture, [3H]-hypoxanthine incorporation): 800 nM
6 | Cc1cc(C=NNC(=N)N)c(O)c(C=NNC(=N)N)c1 [2,2′-[(2-hydroxy-5-methyl-1,3-phenylene)dimethylidyne]bis(hydrazinecarboximidamide)] | 2.3 | 200 | hemozoin content of monocytes after phagocytosis of hemozoin (luminol-elicited chemiluminescence) [1]: significant reduction of hemozoin
7 | COc1c(C=NNC(=N)N)cc(C)cc1C=NNC(=N)N.Cl.Cl [2,2′-[(2-methoxy-5-methyl-1,3-phenylene)dimethylidyne]bis(hydrazinecarboximidamide) dihydrochloride] | 2.0 | 2300 | 
8 | CC(=NNC(=N)N)c1cc(C(C)=NNC(=N)N)c(O)cc1O.Cl.Cl [2,2′-[(4,6-dihydroxy-1,3-phenylene)diethylidyne]bis(hydrazinecarboximidamide) dihydrochloride] | 2.6 | 7000 | 
9 | CC(=NNC(=N)N)c1ccc(O)c(C(C)=NNC(=N)N)c1.Cl.Cl [2,2′-[(4-hydroxy-1,3-phenylene)diethylidyne]bis(hydrazinecarboximidamide) dihydrochloride] | 0.6 | 2600 | 
10 | Cl.Cl.N=C(N)NN=Cc1ccc(O)c(C=NNC(=N)N)c1 [2,2′-[(4-hydroxy-1,3-phenylene)dimethylidyne]bis(hydrazinecarboximidamide) dihydrochloride] | 2.2 | 5500 | 
11 | CC(=NNC(=N)N)c1cc(N)cc(C(C)=NNC(=N)N)c1.Cl.Cl [2,2′-[(5-amino-1,3-phenylene)diethylidyne]bis(hydrazinecarboximidamide) dihydrochloride] | 0.3 | 4000 | 
12 | CC(=NNC(=N)N)c1cc(O)cc(C(C)=NNC(=N)N)c1.Cl.Cl [2,2′-[(5-hydroxy-1,3-phenylene)diethylidyne]bis(hydrazinecarboximidamide) dihydrochloride] | 0.0 | 1400 | 
13 | Cl.N=C(N)NN=Cc1c(O)ccc2ccccc12 [2-[(2-hydroxy-1-naphthyl)methylidene]hydrazinecarboximidamide monohydrochloride] |  |  | % depol. hemoz. (synthetic hemozoin; Table 1): 4.3%; IC50 (P. falciparum; Plasmodium falciparum): 1800 nM
14 | Cc1c(O)c2ccccc2c2c1sc(NCCCN(CCO)CCO)[n+]2C [2-[[3-[bis(2-hydroxyethyl)amino]propyl]imino]-1,2-dihydro-1,4-dimethylnaphtho[1,2-d]thiazol-5-ol dihydrochloride] |  |  | % depol. hemoz. (synthetic hemozoin; Table 3): 2.9%; IC50 (P. falciparum; Plasmodium falciparum): 200 nM
15 | Cl.N=C(N)NN=Cc1c(N)oc2ccc(Cl)cc2c1=O [2-amino-3-[(aminoiminomethyl)hydrazono]methyl]-6-chloro-4H-1-benzopyran-4-one hydrochloride] |  |  | % depol. hemoz. (synthetic hemozoin; Table 1): 0.6%; IC50 (P. falciparum; Table 1, aryl monoguanylhydrazones, growth in culture, [3H]-hypoxanthine incorporation): 3250 nM
16 | Cc1c(O)c2ccccc2c2sc(NCCCN3CCOCC3)nc12 [4-methyl-2-[[3-(4-morpholino)propyl]amino]naphtho[1,2-d]thiazol-5-ol dihydrochloride] |  |  | IC50 (P. falciparum; Table 3, naphthothiazolium salts, in culture, [3H]-hypoxanthine incorporation): 600 nM
17 | C/C(=N\NC(=N)N)c1cccc(NC(=O)CCCC(=O)Nc2cccc(/C(C)=N/NC(=N)N)c2)c1 [dihydrochloride] |  |  | % depol. hemoz. (synthetic hemozoin; Table 4): 0%; IC50 (P. falciparum; Plasmodium falciparum): 800 nM
